Values joined by “and” are separate entries in the source; they are usually repeats but may differ in a detail not shown here. Identical values can stand only once.
Tests used:
[1] = Safety assessment, adverse event monitoring (Parts I-V); format: in vivo, human
Protocol: Safety was assessed using subject interviews and adverse event (AE) monitoring. All subjects received laboratory examinations after termination of drug infusion for 48 or 72 h; the examination items are the same as those listed in the screening process. If clinical abnormalities were present, further follow-ups were required until the laboratory test values or vital sign levels of the abnormal items returned to normal values or stable levels. The clinical significance of abnormal laboratory test values was determined by the physicians.
(§1) The vital signs were analyzed by repeated measures analysis of variance (ANOVA), and laboratory indexes were analyzed by the paired t-test and one-way ANOVA. Comparison within different dose regimens of pyragrel or among different treatments (pyragrel, ozagrel, and placebo) or production of urinary 11-D-HTXB2 among groups was performed with the t-test, and expected values were considered along with the actual situation. Descriptive methods were used to compare the incidence of AE between pyragrel and ozagrel/placebo or in different pyragrel dose regimens; the normal/abnormal changes in laboratory examinations before and after administration were described.

[2] = mice, daily 36 mg/kg injections for 4 days, cited from earlier work
[3] = test system: platelet agglutination inducted by adenosine diphosphate (ADP) and arachidonic acid (AA); assay: Platelet agglutination inducted by ADP and AA (Part IV); format: in vivo, human; conditions: single 3 h infusion of pyragrel 60, 120 or 240 mg, data not shown
Protocol: (§2) Urinary levels of 11-D-HTXB2, the degree of platelet agglutination inhibition (DPAI), and the plasma levels of TXB2 and 6-keto-PG1α are considered effective indicators to confirm the antithrombotic effect of a drug candidate ([Uyama et al., 1985]; [Morio et al., 1993]). Therefore, we determined the inhibitory effect of pyragrel on all these three markers in Part IV after a single 3 h infusion dose of pyragrel (60, 120, or 240 mg). […] Similarly, the plasma levels of TXB2 and 6-keto-PG1α (stable metabolites of TXA2 and PGI2, respectively) were determined by ELISA since the decreased TXB2/6-keto- PG1α ratio indicates platelet aggregation and thrombosis inhibition ([Mizugaki et al., 1999]). […] Actually, levels of plasma TXB2 and 6-keto-PG1α are different between patients with cerebral ischemic and healthy subjects; with the limitation of small size for pharmacodynamic activity evaluation in the study, plus the significant reduction in urinary 11-D-HTXB2 level here, we recommended that a larger sample size, extensive phase II study should be performed in patients to further study the pharmacodynamic characteristic of pyragrel.

[4] = test system: urinary 11-D-HTXB2 (indicator of TXA2 production); assay: Urinary 11-D-HTXB2 production by ELISA (Part IV); format: in vivo, human; conditions: for Urinary 11-D-HTXB2 (standardized by urine creatinine): Part IV
Protocol: […] […] Production of 11-dehydro-thrombxane B2 (11-D-HTXB2) in urine sample was detected by ELISA method.
as §1
Given that 11-dehydrothromboxane B2 (11-D-HTXB2) is considered a reliable indicator of TXA2 production in humans and several animal models ([Morio et al., 1993]; [Yamanaka et al., 1993]), we preliminarily measured the production of urinary 11-D-HTXB2 as a maker for evaluating the TXA2 inhibition activity of pyragrel in three dose groups (60, 120, or 240 mg) in Part IV. […] ( Table 9 ).

[5] = test system: plasma TXB2 and 6-keto-PG1α; assay: Plasma TXB2 and 6-keto-PG1α by ELISA (Part IV); format: in vivo, human; conditions: pyragrel 60, 120, 240 mg single i.v. dose; data not shown
Protocol: as §2

[6] = test system: focal cerebral ischemia; conditions: cited from earlier work
[7] = Preliminary pharmacodynamic studies of the metabolites; conditions: data not shown
Protocol: Based on the pharmacological activity, the pharmacokinetic characteristics of the metabolites were evaluated in the study.

[8] = Part II, pyragrel 240 mg in 250 ml saline
[9] = Part III, multiple doses of pyragrel 180 mg
[10] = Part IV, pyragrel 60, 120, 240 mg crossover
[11] = Part V, pyragrel 360 mg in 24 h

COc1cc(C=CC(=O)[O-])ccc1OCc1nc(C)c(C)nc1C.[Na+] [Pyragrel, sodium pyragrel]
AE incidence rate (IR) ([1]; Part I, 36 pyragrel-treated subjects, 8 subjects of ozagrel treatment): 33.3%
AE Type ([1]; Part I, pyragrel 30 mg): DB elevation, palpitation
Number of AEs ([1]; Part I, pyragrel 30 mg): 2
AE Type ([1]; Part I, pyragrel 60 mg): Leucocytes increase, positive urine protein
Number of AEs ([1]; Part I, pyragrel 60 mg): 2
AE Type ([1]; Part I, pyragrel 120 mg): DB elevation
Number of AEs ([1]; Part I, pyragrel 120 mg): 1
AE Type ([1]; Part I, pyragrel 180 mg): DB elevation (2), ventosity
Number of AEs ([1]; Part I, pyragrel 180 mg): 3
AE Type ([1]; Part I, pyragrel 240 mg): APTT extension
Number of AEs ([1]; Part I, pyragrel 240 mg): 2
AE Type ([1]; Part I, pyragrel 300 mg): Lower hemoglobin, total bile acid increase
Number of AEs ([1]; Part I, pyragrel 300 mg): 2
AE Type [1, 8]: DB/TB elevation
Number of AEs [1, 8]: 2
AE incidence rate (IR) ([1]; Part II, pyragrel 240 mg in 250 ml saline, 2/4): 50%
AE Type [1, 9]: DB/TB elevation, alanine aminotransferase elevated, abdominal pain, headache, low blood potassium, urine frequency, fecal OBT+.
Number of AEs [1, 9]: 12
AE Type [1, 10]: Dizziness, TB/DB elevation, transient left tinnitus, double upper arm papules, fatigue
Number of AEs [1, 10]: 8
AE incidence ([1]; Part V, continuous infusion, 1/4): 25.0%
AE Type [1, 11]: DB elevation
Number of AEs [1, 11]: 1
Severe AEs, in words ([1]; Parts I-V): No severe AEs occurred
Number of AEs ([1]; Total, Parts I-V): 35
Incidence of elevation in conjugated bilirubin (DB elevation) ([1]; all parts, 12/68 subjects of pyragrel, 2/8 subjects of ozagrel): 17.6%
Tolerability, in words ([1]; single i.v. infusion up to 300 mg, multiple dose 180 mg, prolonged infusion 360 mg within 24 h): well tolerated
Bleeding time, lower than with ozagrel ([2]; P < 0.01): 35%
Prolongation of coagulation time, pyragrel vs ozagrel [2]: comparable
Platelet agglutination inducted by ADP and AA [3]: slightly inhibited
Duration of the inhibitory effect on 11-D-HTXB2 production ([4]; 120- and 240-mg group, P<0.05 vs preadministration): at least 12 h
Urinary 11-D-HTXB2 (standardized by urine creatinine) ([4]; 60 mg/kg group, 0–3 h after administration): 37.83 ± 4.85 pg/mL
Urinary 11-D-HTXB2 (standardized by urine creatinine) ([4]; 60 mg/kg group, 3–4 h after administration): 36.64 ± 4.15 pg/mL
Urinary 11-D-HTXB2 (standardized by urine creatinine) ([4]; 60 mg/kg group, 4–8 h after administration): 35.05 ± 4.51 pg/mL
Urinary 11-D-HTXB2 (standardized by urine creatinine) ([4]; 60 mg/kg group, 8–12 h after administration, 60 mg/kg): 34.77 pg/mL and 34.77 ± 4.16 pg/mL
Urinary 11-D-HTXB2 (standardized by urine creatinine) ([4]; 60 mg/kg group, 12–24 h after administration, 60 mg/kg): 35.17 pg/mL and 35.17 ± 4.63 pg/mL
Urinary 11-D-HTXB2 (standardized by urine creatinine) ([4]; 120 mg/kg group, 0–3 h after administration): 37.06 ± 5.00 pg/mL
Urinary 11-D-HTXB2 (standardized by urine creatinine) ([4]; 120 mg/kg group, 3–4 h after administration): 35.85 ± 4.40 pg/mL
Urinary 11-D-HTXB2 (standardized by urine creatinine) ([4]; 120 mg/kg group, 4–8 h after administration): 33.03 ± 5.00 pg/mL
Urinary 11-D-HTXB2 (standardized by urine creatinine) ([4]; 120 mg/kg group, 8–12 h after administration): 31.45 ± 4.88 pg/mL
Urinary 11-D-HTXB2 (standardized by urine creatinine) ([4]; 120 mg/kg group, 12–24 h after administration): 32.14 ± 5.17 pg/mL
Urinary 11-D-HTXB2 (standardized by urine creatinine) ([4]; 240 mg group, 0–3 h after administration): 36.40 ± 4.68 pg/mL
Urinary 11-D-HTXB2 (standardized by urine creatinine) ([4]; 240 mg group, 3–4 h after administration): 35.37 ± 4.60 pg/mL
Urinary 11-D-HTXB2 (standardized by urine creatinine) ([4]; 240 mg group, 4–8 h after administration): 33.10 ± 4.31 pg/mL
Urinary 11-D-HTXB2 (standardized by urine creatinine) ([4]; 240 mg group, 8–12 h after administration, 240 mg/kg): 30.72 pg/mL and 30.72 ± 4.38 pg/mL
Urinary 11-D-HTXB2 (standardized by urine creatinine) ([4]; 240 mg group, 12–24 h after administration, 240 mg/kg): 31.37 pg/mL and 31.37 ± 3.79 pg/mL
Production of urinary 11-D-HTXB2, effect in words ([4]; single infusion of pyragrel 60, 120 or 240 mg): time- and dose-dependently inhibited
Plasma 6-keto-PG1α [5]: increase
Plasma TXB2 [5]: decreased
Effect against focal cerebral ischemic injury and focal cerebral ischemia-reperfusion ([6]; rat models of focal cerebral ischemia, ref Wang and Wu, 2014): markedly protective effects
Nerve function ([6]; rats with focal cerebral ischemia-reperfusion injury, continuous infusion of pyragrel for 7 days): significant improvements

COc1cc(CCC(=O)O)ccc1OCc1nc(C)c(C)nc1C [BBS]
Antiplatelet and antithrombotic effects [7]: weak
